According to paper PMC10492782, “Exploiting the aggregation propensity of beta-lactamases to design inhibitors that induce enzyme misfolding” (Nature Communications, 2023):
Several values for one entry are separate records, joined by “and”; a condition that tells them apart may be missing. Equal values may be shown once. Where a name gives a salt, the structure may show the parent alone.

How the values were obtained:
[1] = test system: uro-pathogenic E. coli strain (UPEC strain blaTEM-1); experiment: Urinary tract infection model, bacterial load in bladder, kidney, ureter; assay type: in vivo, female C57BL/6JAX mice; parameters: bacterial load, Ureters / bacterial load, Bladder / bacterial load, Kindey: unit: CFU per mL of tissue extract
Method: Fig. 7 Evaluation of in vivo use of peptides that induce the aggregation of TEM beta-lactamase. A Lysis of human erythrocytes (hemolysis) was assessed in the presence of the indicated concentrations of TEM3.2 for 2 h at 37 °C, and normalized to the value obtained with 1% of the detergent triton. […] B Cell viability using the CellTiter Blue assay of HeLa cells treated for 24 h with the indicated concentrations TEM 3.2 at 37 °C. […] DAPI (4’,6-diamidino-2-phenylindole) is blue, while CellMask is red. D Experimental workflow of the in vivo model used in this study. E–G Bacterial load of indicated organs of female C57BL/6JAX mice with a urinary tract infection with E. coli strain UZ_TEM104, treated with 30 mg/kg penicillin (oral) as well 10 mg/kg tazobactam (oral) or 10 mg/kg TEM3.2 via the indicated treatment route. IV intravenous, IP intraperitoneal, SC subcutaneously. The data shown is from a single experiment with 12 animals for each group. The result for each animal is shown as a dot. […] The statistically significant differences were determined using ANOVA, followed by Dunnett’s multiple comparison test. […] Source data are provided as a Source Data file.
(§1) We also performed a tolerability study using a dose escalation method by administering the peptide at 2, 5, 10, 15, and 20 mg/kg via different parenteral routes: intravenous (IV), intraperitoneal (IP), and subcutaneous (SC) in female C57BL/6JAX mice, aged 8–10 weeks (Suppl Table 4). […] Vehicle alone (0.9% NaCl) was also administered (IV). After 24 h the animals were sacrificed and the bacterial load in the bladder, kidney, and ureter was quantified by determining the number of colony-forming units (CFU) per mL of tissue extract (Fig. 7E–G).
To test the efficacy of the peptides, a urinary tract infection model was performed as described previously. Briefly, female C57BL/6Jax mice female mice were deprived of water for at least 1 h. Then, they were anesthetized by IP administration of the mixture of ketamine (Nimatek)/xylazine (XYL-M 2% BE-V170581). The bladder of the mouse was massaged with fingers and pushed down gently to expel the remaining urine. Mice were slowly inoculated urethrally with 50 µL of a bacterial suspension slowly over 5 s to avoid vesicoureteral reflux (10^8 CFU/ mouse) using a sterile catheter (pediatric intravenous-access cannula (GS391350)). The catheter was removed directly after inoculation. After surgery, the animals were visually monitored for full recovery. After 1 h post inoculation, all mice received Ampicillin (30 mg/kg_PO-orally) and at the same time 3 groups of animals received the peptides via different administration routes (10 mg/kg_IV—intravenous; IP—intraperitoneal or SC—sub-cutaneous) and the positive control groups received tazobactam (10 mg/kg, PO). The negative control groups received vehicle or saline (IV administration). 2 h post inoculation, all mice received a second injection with the same concentration of each treatment as explained above. Twenty-four hours post-infection, mice were sacrificed and organs (kidney, bladder, ureter) were washed with PBS and were homogenized (Thermo Savant FastPrep FP120 Homogenizer/24 s). The homogenized tissues were serially diluted and cultured on blood agar plates. The plates were incubated overnight at 37 °C, and the number of bacteria was measured by CFU value.

E. coli strain UZ_TEM104 = experiment: microbe, parasite or virus in culture; assay type: cell-based, Escherichia coli
[2] = test system: uro-pathogenic E. coli strain (UPEC strain blaTEM-1); experiment: MIC of ampicillin with or without 32 µg/mL TEM3.2 or tazobactam; assay type: cell-based, Escherichia coli; conditions: 32 μg/mL of either TEM3.2 or tazobactam
Method: as §1
Determination of MIC values was performed using the broth microdilution method according to the EUCAST guideline, which was performed in 96-well polystyrene flat-bottom microtiter plates (BD Biosciences). Briefly, a single colony was inoculated into 5 mL Difco™ Mueller–Hinton Broth (BD Biosciences Ref 275730) and grown to the end-exponential growth phase in a shaking incubator at 37 °C. Cultures were subsequently diluted to a MacFarland (0.5 optical density) to reach 10^6 CFU/mL in fresh MHB medium. 50 µl of different concentrations of peptides ranging from 128 to 2 µg/mL were serially diluted to the sterile 96-well plate in MHB. 50 µL of the diluted bacteria in MHB were next pipetted into 96-well plates to reach the final volume of 100 µL. The bacteria grown with the maximum concentration of carrier and medium were considered positive and negative controls, respectively. The plates were statically incubated overnight at 37 °C to allow bacterial growth. OD was measured at 590 nm using a multipurpose ultraviolet–visible plate reader, and the absorbance of the bacterial growth was measured using an absorbance reader.

SHV-11 = molecular target: T1, SHV-11 (Klebsiella pneumoniae, UniProt P0AD64, L31Q); experiment: Thermal denaturation, Right-Angle Light Scattering (aggregation); assay type: biochemical; conditions: excess of tazobactam; less marked than for TEM-1
T1 construct: His-tag (N); TEV cleavage site (N); made in house; host or cells: E. coli BL21 (DE3)

TEM-1 [3] = molecular target: T2, TEM-1 (Escherichia coli, UniProt P62593); assay type: biochemical
Source text: To satisfy the reviewer’s comment, we have performed urea denaturation in the presence
of a molar excess of tazobactam and compared it to the condition without.
two-state denaturation of the protein with a stable intermediate. The difference between
The plots show a single repeat.
Table 1: Results from fitting 3 replicates
G1 (kcal/mol) G2 (kcal/mol) Sum

TEM-1 [4] = molecular target: T2, TEM-1; assay type: biochemical, E. coli; parameters: His-tag (N); TEV cleavage site (N); made in house; host or cells: E. coli BL21 (DE3)
Source text: Then, we performed a thermal denaturation whilst simultaneously monitoring the intrinsic fluorescence as a measure of the folding status of the molecule (Fig. 1D and Supplementary Fig. 2D) and the static light scattering as a measure of aggregation (Fig. 1E and Supplementary Fig. 2E).
D Heat denaturation of TEM-1 monitored by intrinsic fluorescence plotted as the BaryCentric Mean (BCM) of the fluorescence emission spectrum in the presence (red) and absence (blue) of tazobactam. […] E Temperature-dependent evolution of the Right-Angle Light Scattering (RALS) intensity measured simultaneously with the data in D to monitor protein aggregation. […] F Same data as in E, but showing a dose-titration of the beta-lactamase inhibitor tazobactam.

[5] = group Tazo, each column one mouse

T2 sequence (P62593 24-286 limits assumed): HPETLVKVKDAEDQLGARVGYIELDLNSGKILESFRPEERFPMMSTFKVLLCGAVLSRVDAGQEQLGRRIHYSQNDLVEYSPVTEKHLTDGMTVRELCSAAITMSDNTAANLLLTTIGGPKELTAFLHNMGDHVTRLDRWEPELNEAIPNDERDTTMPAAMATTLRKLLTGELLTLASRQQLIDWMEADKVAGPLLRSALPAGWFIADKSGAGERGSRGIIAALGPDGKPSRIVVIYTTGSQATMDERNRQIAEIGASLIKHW
T1 sequence (P0AD64 22-286 L31Q): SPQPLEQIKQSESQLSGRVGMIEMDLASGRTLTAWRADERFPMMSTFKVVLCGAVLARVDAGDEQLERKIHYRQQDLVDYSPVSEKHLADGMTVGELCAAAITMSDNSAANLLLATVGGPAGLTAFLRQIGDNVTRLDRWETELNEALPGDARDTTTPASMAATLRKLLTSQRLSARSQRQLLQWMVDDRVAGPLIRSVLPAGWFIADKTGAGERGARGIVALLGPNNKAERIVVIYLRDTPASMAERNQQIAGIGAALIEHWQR

Q: How did the “best reduction of the bacterial load” value ([1]; 10 mg/kg plus 30 mg/kg Ampicillin orally at 60 and 120 min post-infection, CFU at 24 h, most robust in kidney and ureter) turn out when `C[C@]1(Cn2ccnn2)[C@H](C(=O)O)N2C(=O)C[C@H]2S1(=O)=O` [Tazobactam, tazobactam sodium salt] was run?
A: 1.8 log folds

Q: What about the “bacterial load, Bladder” value [1, 5] of the same compound?
A: 26566.7 and 152667 and 97400 and 1 and 3700 and 1433.33 and 3000 and 1800 and 1966.67 and 316733 and 4266.67 and 3266.67

Q: And the “bacterial load, Kindey” value [1, 5]?
A: 24000 and 134000 and 72733.3 and 633.333 and 1 (3×) and 10200 and 2066.67 and 17700 and 9833.33 and 4600

Q: What about the “bacterial load, Ureters” value [1, 5] of the same compound?
A: 2433.33 and 54400 and 33133.3 and 133.333 and 166.667 and 1 (2×) and 1000 and 800 and 11633.3 and 1900 and 1166.67

Q: And the MIC penicillin (E. coli strain UZ_TEM104; E. coli UZ_TEM104, concentration of additive 50 (mg/mL [sic]))?
A: 400000 µg/mL

Q: What about the “fold reduction of the MIC of penicillin G” value (E. coli strain UZ_TEM104; additive at 50 μg/mL) of the same compound?
A: 4 fold

Q: What about the MIC penicillin (E. coli strain UZ_TEM104; in the presence of additive (peptide or tazobactam) at fixed 50 μg/mL) of the same compound?
A: 400 µg/mL

Q: And the “MIC Ampicillin in the presence of additive” value [2]?
A: 25 µg/mL

Q: What about the “effect on aggregation of SHV-11 during thermal denaturation (in words)” value (SHV-11) of the same compound?
A: a decrease in the aggregation of the protein

Q: What about the Sum (TEM-1 [3]; G1 + G2, with molar excess of tazobactam (no tazo 10.40)) of the same compound?
A: 10.28 kcal/mol

Q: What about the G2 (TEM-1 [3]; urea denaturation of TEM-1 with molar excess of tazobactam, 3-state fit, 3 replicates (no tazo 5.00)) of the same compound?
A: 4.03 kcal/mol

Q: And the G1 (TEM-1 [3]; urea denaturation of TEM-1 with molar excess of tazobactam, 3-state fit, 3 replicates (no tazo 5.40))?
A: 6.25 kcal/mol

Q: What about the “effect on aggregation of TEM-1 during thermal denaturation (in words)” value (TEM-1 [4]; excess of tazobactam, more marked for TEM-1 than SHV-11) of the same compound?
A: a decrease in the aggregation of the protein

Q: What about the “effect on aggregation of TEM-1, dose-response (in words)” value (TEM-1 [4]; static light scattering during temperature ramp, inhibitor titration) of the same compound?
A: reduce the aggregation of the enzyme in a dose-responsive manner
